Experiment: xn = mol fraction of the nth substance listed
Conditions: Liquid, Vibrating tube method

CCCCn1cc[n+](C)c1.F[B-](F)(F)F [1-butyl-3-methylimidazolium tetrafluoroborate] + CO
Conditions	mass density [kg/m3]
323.15 K, 10080 kPa, x1 = 0.2626	1052.82
323.15 K, 10090 kPa, x1 = 0.4988	1131.48
323.15 K, 10140 kPa, x1 = 0.1302	960.32
323.15 K, 10160 kPa, x1 = 0.0433	854.23
323.15 K, 10340 kPa, x1 = 0.7501	1173.44
323.15 K, 11020 kPa, x1 = 0.0087	792.32
323.15 K, 15060 kPa, x1 = 0.2626	1056.14
323.15 K, 15120 kPa, x1 = 0.1302	964.14
323.15 K, 15250 kPa, x1 = 0.0433	858.75
323.15 K, 15420 kPa, x1 = 0.4988	1134.4
323.15 K, 15430 kPa, x1 = 0.7501	1176.04
323.15 K, 15440 kPa, x1 = 0.0087	796.64
323.15 K, 15470 kPa, x1 = 0.9102	1192.72
323.15 K, 20070 kPa, x1 = 0.7501	1178.36
323.15 K, 20090 kPa, x1 = 0.9102	1194.92
323.15 K, 20110 kPa, x1 = 0.1302	967.85
323.15 K, 20340 kPa, x1 = 0.0433	863.04
323.15 K, 20430 kPa, x1 = 0.2626	1059.59
323.15 K, 20640 kPa, x1 = 0.0087	801.47
323.15 K, 20740 kPa, x1 = 0.4988	1137.33
323.15 K, 25030 kPa, x1 = 0.4988	1139.71
323.15 K, 25090 kPa, x1 = 0.7501	1180.84
323.15 K, 25120 kPa, x1 = 0.1302	971.44
323.15 K, 25310 kPa, x1 = 0.9102	1197.38
323.15 K, 25630 kPa, x1 = 0.0433	867.24
323.15 K, 25660 kPa, x1 = 0.0087	805.89
323.15 K, 25810 kPa, x1 = 0.2626	1062.91
323.15 K, 29940 kPa, x1 = 0.0433	870.48
323.15 K, 30010 kPa, x1 = 0.4988	1142.47
323.15 K, 30090 kPa, x1 = 0.2626	1065.44
323.15 K, 30410 kPa, x1 = 0.7501	1183.41
323.15 K, 30440 kPa, x1 = 0.1302	975.12
323.15 K, 30450 kPa, x1 = 0.9102	1199.76
323.15 K, 30560 kPa, x1 = 0.0087	809.96
323.15 K, 35210 kPa, x1 = 0.0433	874.21
323.15 K, 35240 kPa, x1 = 0.2626	1068.37
323.15 K, 35240 kPa, x1 = 0.4988	1145.39
323.15 K, 35240 kPa, x1 = 0.7501	1185.69
323.15 K, 35450 kPa, x1 = 0.0087	813.8
323.15 K, 35620 kPa, x1 = 0.1302	978.57
323.15 K, 35860 kPa, x1 = 0.9102	1202.22
323.15 K, 39410 kPa, x1 = 0.0087	816.73
323.15 K, 39620 kPa, x1 = 0.1302	981.14
323.15 K, 39860 kPa, x1 = 0.9102	1204.01
323.15 K, 39890 kPa, x1 = 0.0433	877.31
323.15 K, 39890 kPa, x1 = 0.7501	1187.86
323.15 K, 39970 kPa, x1 = 0.2626	1070.95
323.15 K, 39970 kPa, x1 = 0.4988	1148.04
348.15 K, 340 kPa, x1 = 0.1302	931.46
348.15 K, 420 kPa, x1 = 0.9102	1166.95
348.15 K, 610 kPa, x1 = 0.4988	1107.55
348.15 K, 640 kPa, x1 = 0.0087	757.2
348.15 K, 710 kPa, x1 = 0.0433	821.46
348.15 K, 860 kPa, x1 = 0.2626	1026.35
348.15 K, 870 kPa, x1 = 0.7501	1150.03
348.15 K, 5060 kPa, x1 = 0.2626	1029.49
348.15 K, 5070 kPa, x1 = 0.7501	1152.55
348.15 K, 5310 kPa, x1 = 0.9102	1169.75
348.15 K, 5370 kPa, x1 = 0.0433	826.71
348.15 K, 5410 kPa, x1 = 0.4988	1110.43
348.15 K, 5710 kPa, x1 = 0.1302	936.68
348.15 K, 6020 kPa, x1 = 0.0087	763.72
348.15 K, 10060 kPa, x1 = 0.4988	1113.45
348.15 K, 10060 kPa, x1 = 0.7501	1155.48
348.15 K, 10070 kPa, x1 = 0.9102	1172.42
348.15 K, 10410 kPa, x1 = 0.2626	1033.58
348.15 K, 10670 kPa, x1 = 0.0433	832.4
348.15 K, 10820 kPa, x1 = 0.1302	941.38
348.15 K, 10960 kPa, x1 = 0.0087	769.43
348.15 K, 15090 kPa, x1 = 0.2626	1037.07
348.15 K, 15120 kPa, x1 = 0.0087	774.02
348.15 K, 15120 kPa, x1 = 0.4988	1116.66
348.15 K, 15140 kPa, x1 = 0.1302	945.16
348.15 K, 15150 kPa, x1 = 0.0433	836.97
348.15 K, 15420 kPa, x1 = 0.9102	1175.35
348.15 K, 15870 kPa, x1 = 0.7501	1158.8
348.15 K, 20070 kPa, x1 = 0.4988	1119.71
348.15 K, 20080 kPa, x1 = 0.7501	1161.16
348.15 K, 20110 kPa, x1 = 0.0433	841.77
